Measurements from PubChem BioAssay (NCI).
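Briefly, cells in 96-well plates were exposed to five compound concentrations for 48 h, and endpoints were estimated by linear interpolation. Here, GI50 denotes the concentration required for 50% inhibition of growth. At the TGI there is no net growth.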

Experiments:
Experiment in all cases: NCI tumour cell line growth inhibition, 48 h
EKVX NSCLC = tested on: EKVX NSCLC
SK-MEL-28 melanoma = tested on: SK-MEL-28 melanoma
TK-10 renal = tested on: TK-10 renal
A549 NSCLC = tested on: A549 NSCLC
HOP-62 NSCLC = tested on: HOP-62 NSCLC
MALME-3M melanoma = tested on: MALME-3M melanoma
NCI/ADR-RES ovarian = tested on: NCI/ADR-RES ovarian
SR leukemia = tested on: SR leukemia
K-562 leukemia = tested on: K-562 leukemia
HOP-92 NSCLC = tested on: HOP-92 NSCLC

| SMILES | GI50 (EKVX NSCLC) [nM] | TGI (EKVX NSCLC) [µM] | GI50 (SK-MEL-28 melanoma) [nM] | TGI (SK-MEL-28 melanoma) [µM] | GI50 (TK-10 renal) [nM] | TGI (TK-10 renal) [µM] | GI50 (A549 NSCLC) [nM] | TGI (A549 NSCLC) [µM] | GI50 (HOP-62 NSCLC) [nM] | TGI (HOP-62 NSCLC) [µM] | GI50 (MALME-3M melanoma) [nM] | TGI (MALME-3M melanoma) [µM] | GI50 (NCI/ADR-RES ovarian) [µM] | TGI (NCI/ADR-RES ovarian) [µM] | GI50 (SR leukemia) [nM] | TGI (SR leukemia) [µM] | GI50 (K-562 leukemia) [nM] | TGI (K-562 leukemia) [µM] | TGI (HOP-92 NSCLC) [µM] | GI50 (HOP-92 NSCLC) [nM] |
| --- | --- | --- | --- | --- | --- | --- | --- | --- | --- | --- | --- | --- | --- | --- | --- | --- | --- | --- | --- | --- |
| CCN(CC)CCCCNc1c2ccccc2[n+](C)c2c1[nH]c1ccccc12 | 298 | 3.16 | 201 | 0.539 | 2520 | 12.6 | 55.8 | 33.2 | 683 | 6.15 | 217 | 0.671 | 48.8 | > 100 | 373 | 42.2 | 379 | 3.9 | 0.28 | – |
| CCC1C2Cc3ccc(O)cc3C1(CC)CCN2C (configuration not stated) | – | > 100 | – | > 100 | – | > 100 | – | > 100 | – | > 100 | – | > 100 | – | > 100 | – | > 100 | – | > 100 | > 100 | – |
| COc1cc2ccc(/C=C\[N+](=O)[O-])cc2cc1OC | – | 15.5 | – | 7.51 | – | 9.01 | – | 29.8 | – | 16.1 | – | – | – | 17.2 | – | 5.28 | – | > 24.6 | 10.1 | – |
| CC(C)(C)n1cc(-c2ccnc(NCCCNS(=O)(=O)c3ccc(C(F)(F)F)cc3)c2)c(-c2cccc(O)c2)n1 | 1820 | 3.95 | 1750 | 3.25 | 2310 | 5.28 | 2020 | 4.58 | 1930 | 3.85 | 1720 | 3.38 | 2.07 | 4.3 | 2210 | 10.5 | 2100 | > 100 | 3.31 | 1600 |
| CN[C@@H](C)C(=O)N[C@H](C(=O)N1CCC[C@H]1C(=O)Nc1snnc1-c1ccccc1)C1CCCCC1 | – | – | 23000 | 61.6 | > 59900 | > 94.9 | 71600 | > 100 | 26500 | > 100 | 11500 | 26.2 | 66.1 | > 100 | 20700 | > 69.7 | 24400 | 57.7 | 27.7 | 3060 |
| COc1ccc2cc(C(=O)/C=C/c3ccc(Cl)cc3Cl)ccc2c1 | 9790 | 26.4 | 29900 | > 100 | 27700 | > 100 | 14100 | 31.9 | 24000 | 50.8 | 23500 | > 100 | 23 | > 100 | 3670 | 17.3 | 2530 | 14.5 | > 100 | > 100000 |
| COc1cnc2c(c1)C(=O)c1c-2n(CCCn2ccnc2)c(=O)c2cc(F)ccc12 | 167 | > 100 | 191 | 1.3 | – | – | 20.9 | 1.5 | < 10 | 0.176 | 193 | 0.619 | 0.0193 | > 100 | < 10 | 0.76 | – | – | 3.11 | 154 |
